According to PubChem BioAssay (NCI):
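Values below derive from 48-hour exposures of cells grown in 96-well plates, with endpoints linearly interpolated between the two concentrations bracketing the appropriate inhibition level. At the GI50, growth is halved. TGI denotes the concentration required for complete inhibition of growth.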

Legend:
Assay in all cases: growth of human tumour cells (NCI), 48 h
NCI-H23 lung = test system: NCI-H23 lung
UACC-257 melanoma = test system: UACC-257 melanoma
HT29 colon = test system: HT29 colon
TK-10 renal = test system: TK-10 renal
HOP-92 NSCLC = test system: HOP-92 NSCLC
UO-31 renal = test system: UO-31 renal
NCI-H522 lung = test system: NCI-H522 lung
UACC-62 melanoma = test system: UACC-62 melanoma
SW-620 colon = test system: SW-620 colon
786-0 renal = test system: 786-0 renal
A498 renal = test system: A498 renal
T-47D breast = test system: T-47D breast
HOP-62 NSCLC = test system: HOP-62 NSCLC
BT-549 breast = test system: BT-549 breast
SNB-75 CNS = test system: SNB-75 CNS
MOLT-4 leukemia = test system: MOLT-4 leukemia
SK-MEL-5 melanoma = test system: SK-MEL-5 melanoma
CCRF-CEM leukemia = test system: CCRF-CEM leukemia
U251 CNS = test system: U251 CNS
IGROV1 ovarian = test system: IGROV1 ovarian
SF-268 CNS = test system: SF-268 CNS
NCI/ADR-RES ovarian = test system: NCI/ADR-RES ovarian
CAKI-1 renal = test system: CAKI-1 renal
M14 melanoma = test system: M14 melanoma
HCC-2998 colon = test system: HCC-2998 colon
SK-MEL-28 melanoma = test system: SK-MEL-28 melanoma
SR leukemia = test system: SR leukemia
HL-60(TB) leukemia = test system: HL-60(TB) leukemia
RXF 393 renal = test system: RXF 393 renal
HCT-15 colon = test system: HCT-15 colon
SNB-19 CNS = test system: SNB-19 CNS
MCF7 breast = test system: MCF7 breast
DU-145 prostate = test system: DU-145 prostate
SK-OV-3 ovarian = test system: SK-OV-3 ovarian
K-562 leukemia = test system: K-562 leukemia
SN12C renal = test system: SN12C renal
SF-539 CNS = test system: SF-539 CNS
MALME-3M melanoma = test system: MALME-3M melanoma
KM12 colon = test system: KM12 colon
OVCAR-3 ovarian = test system: OVCAR-3 ovarian
COLO 205 colon = test system: COLO 205 colon
OVCAR-8 ovarian = test system: OVCAR-8 ovarian
NCI-H460 lung = test system: NCI-H460 lung
SK-MEL-2 melanoma = test system: SK-MEL-2 melanoma
HS 578T breast = test system: HS 578T breast
PC-3 prostate = test system: PC-3 prostate
SF-295 CNS = test system: SF-295 CNS
LOX IMVI melanoma = test system: LOX IMVI melanoma
A549 NSCLC = test system: A549 NSCLC
HCT-116 colon = test system: HCT-116 colon
OVCAR-5 ovarian = test system: OVCAR-5 ovarian

SMILES: COc1cc(/C=C2\CCC/C(=C\c3ccc(OCC4CO4)c(OC)c3)C2=O)ccc1OCC1CO1 (configuration not stated)
- GI50 (NCI-H23 lung): 2.8 µM
- TGI (NCI-H23 lung): 9.71 µM
- GI50 (UACC-257 melanoma): 1.82 µM
- TGI (UACC-257 melanoma): 3.91 µM
- GI50 (HT29 colon): 2.25 µM
- TGI (HT29 colon): 4.62 µM
- GI50 (TK-10 renal): 4.04 µM
- TGI (TK-10 renal): 17.6 µM
- GI50 (HOP-92 NSCLC): 3.3 µM
- TGI (HOP-92 NSCLC): > 100 µM
- GI50 (UO-31 renal): 2.51 µM
- TGI (UO-31 renal): 7.94 µM
- GI50 (NCI-H522 lung): 2.47 µM
- TGI (NCI-H522 lung): 6 µM
- GI50 (UACC-62 melanoma): 2.02 µM
- TGI (UACC-62 melanoma): 4.8 µM
- GI50 (SW-620 colon): 2.46 µM
- TGI (SW-620 colon): 5.09 µM
- GI50 (786-0 renal): 2.04 µM
- TGI (786-0 renal): 3.85 µM
- GI50 (A498 renal): 3.62 µM
- TGI (A498 renal): 10.1 µM
- GI50 (T-47D breast): 2.98 µM
- TGI (T-47D breast): 12.2 µM
- GI50 (HOP-62 NSCLC): 3.38 µM
- TGI (HOP-62 NSCLC): 9.59 µM
- GI50 (BT-549 breast): 2.28 µM
- TGI (BT-549 breast): 5.3 µM
- GI50 (SNB-75 CNS): 2.92 µM
- TGI (SNB-75 CNS): 19.1 µM
- GI50 (MOLT-4 leukemia): 2.91 µM
- TGI (MOLT-4 leukemia): 34.1 µM
- GI50 (SK-MEL-5 melanoma): 1.74 µM
- TGI (SK-MEL-5 melanoma): 3.52 µM
- GI50 (CCRF-CEM leukemia): 2.5 µM
- TGI (CCRF-CEM leukemia): > 100 µM
- GI50 (U251 CNS): 2.11 µM
- TGI (U251 CNS): 5.27 µM
- GI50 (IGROV1 ovarian): 2.87 µM
- TGI (IGROV1 ovarian): 7.07 µM
- GI50 (SF-268 CNS): 2.62 µM
- TGI (SF-268 CNS): 8.41 µM
- GI50 (NCI/ADR-RES ovarian): 4.86 µM
- TGI (NCI/ADR-RES ovarian): > 100 µM
- GI50 (CAKI-1 renal): 3.3 µM
- TGI (CAKI-1 renal): > 100 µM
- GI50 (M14 melanoma): 1.94 µM
- TGI (M14 melanoma): 3.99 µM
- GI50 (HCC-2998 colon): 2.25 µM
- TGI (HCC-2998 colon): 4.75 µM
- GI50 (SK-MEL-28 melanoma): 1.81 µM
- TGI (SK-MEL-28 melanoma): 3.43 µM
- GI50 (SR leukemia): 2.29 µM
- TGI (SR leukemia): > 100 µM
- GI50 (HL-60(TB) leukemia): 3.59 µM
- TGI (HL-60(TB) leukemia): > 100 µM
- GI50 (RXF 393 renal): 1.6 µM
- TGI (RXF 393 renal): 3.05 µM
- GI50 (HCT-15 colon): 2.04 µM
- TGI (HCT-15 colon): 4.59 µM
- GI50 (SNB-19 CNS): 4.73 µM
- TGI (SNB-19 CNS): 76.4 µM
- GI50 (MCF7 breast): 2.02 µM
- TGI (MCF7 breast): 7.32 µM
- GI50 (DU-145 prostate): 3.06 µM
- TGI (DU-145 prostate): 15.8 µM
- GI50 (SK-OV-3 ovarian): 3.54 µM
- TGI (SK-OV-3 ovarian): 10.7 µM
- GI50 (K-562 leukemia): 3.46 µM
- TGI (K-562 leukemia): > 100 µM
- GI50 (SN12C renal): 2.84 µM
- TGI (SN12C renal): 8.71 µM
- GI50 (SF-539 CNS): 2.4 µM
- TGI (SF-539 CNS): 6.78 µM
- GI50 (MALME-3M melanoma): 1.95 µM
- TGI (MALME-3M melanoma): 4.56 µM
- GI50 (KM12 colon): 1.88 µM
- TGI (KM12 colon): 5.13 µM
- GI50 (OVCAR-3 ovarian): 2.44 µM
- TGI (OVCAR-3 ovarian): 6.23 µM
- GI50 (COLO 205 colon): 2 µM
- TGI (COLO 205 colon): 3.54 µM
- GI50 (OVCAR-8 ovarian): 2.1 µM
- TGI (OVCAR-8 ovarian): 9.11 µM
- GI50 (NCI-H460 lung): 2.37 µM
- TGI (NCI-H460 lung): 5.59 µM
- GI50 (SK-MEL-2 melanoma): 2.43 µM
- TGI (SK-MEL-2 melanoma): 5.37 µM
- GI50 (HS 578T breast): 4.22 µM
- TGI (HS 578T breast): > 100 µM
- GI50 (PC-3 prostate): 3.13 µM
- TGI (PC-3 prostate): 45.7 µM
- GI50 (SF-295 CNS): 4.35 µM
- TGI (SF-295 CNS): 84.4 µM
- GI50 (LOX IMVI melanoma): 1.23 µM
- TGI (LOX IMVI melanoma): 3.78 µM
- GI50 (A549 NSCLC): 2.14 µM
- TGI (A549 NSCLC): 5.09 µM
- GI50 (HCT-116 colon): 1.85 µM
- TGI (HCT-116 colon): 6.01 µM
- GI50 (OVCAR-5 ovarian): 2.87 µM
- TGI (OVCAR-5 ovarian): 10.6 µM
